ChEMBL document CHEMBL1151923, “Synthesis and evaluation of a netropsin-proximicin-hybrid library for DNA binding and cytotoxicity” (2009)

Tests used:
AGS = test: Cytotoxicity against human AGS cells after 48 hrs by sulforhodamine B assay; format: functional
HepG2 = test: Cytotoxicity against human HepG2 cells after 48 hrs by sulforhodamine B assay; format: functional; settings: HepG2, 48 h
MCF7 = test: Cytotoxicity against human MCF7 cells after 48 hrs by sulforhodamine B assay; format: functional; settings: MCF7, 48 h
Nucleic Acid [1] = test: Binding affinity to DNA minor groove region CGCAAATTTGCG assessed as melting temperature at 6 uM by thermal denaturation study; format: nucleic-acid assay
Nucleic Acid [2] = test: Binding affinity to DNA minor groove region CGCAAATTTGCG assessed as change in melting temperature at 6 uM by thermal denaturation study; format: nucleic-acid assay
Nucleic Acid [3] = test: Binding affinity to DNA minor groove region CATGGCCATG assessed as melting temperature at 6 uM by thermal denaturation study; format: nucleic-acid assay
Nucleic Acid [4] = test: Binding affinity to DNA minor groove region CATGGCCATG assessed as change in melting temperature at 6 uM by thermal denaturation study; format: nucleic-acid assay

Tm (Nucleic Acid [1]) | ΔTm (Nucleic Acid [2]) | Tm (Nucleic Acid [3]) | ΔTm (Nucleic Acid [4]) | Structure (SMILES) | GI50 (AGS) | GI50 (HepG2) | GI50 (MCF7)
 |  |  |  | COC(=O)Nc1cc(C(=O)Nc2cc(C(=O)O)n(C)c2)n(C)c1 | > 20 µg/mL | > 20 µg/mL | > 20 µg/mL
 |  |  |  | COC(=O)Nc1coc(C(=O)Nc2coc(C(N)=O)c2)c1 [PROXIMICIN A] | 2 µM | 2.8 µM | 24.6 µM
65 °C | 17 °C | 70 °C | 23 °C | Cn1cc(NC(=O)c2cc(NC(=O)OCc3ccccc3)cn2C)cc1C(=O)NCCc1c[nH]c2ccccc12 | 9.3 µM | 5.6 µM | 10.8 µM
 |  |  |  | COC(=O)Nc1cc(C(=O)Nc2cc(C(=O)NC(Cc3c[nH]c4ccccc34)C(=O)O)n(C)c2)n(C)c1 (configuration not stated) | > 20 µg/mL | > 20 µg/mL | > 20 µg/mL
 |  |  |  | COC(=O)Nc1cc(C(=O)Nc2cc(C(=O)NCCc3c[nH]c4ccc(O)cc34)n(C)c2)n(C)c1 | > 20 µg/mL | > 20 µg/mL | > 20 µg/mL
 |  |  |  | CC(=O)Nc1cc(C(=O)Nc2cc(C(=O)NCCc3c[nH]c4ccccc34)n(C)c2)n(C)c1 | > 20 µg/mL | > 20 µg/mL | > 20 µg/mL
 |  |  |  | COC(=O)Nc1coc(C(=O)Nc2coc(C(=O)NCCc3c[nH]c4ccccc34)c2)c1 [PROXIMICIN C] | 0.6 µM | 1.8 µM | 20.6 µM
 |  |  |  | Cn1cc(NC(=O)c2cc(NC(=O)OCC3c4ccccc4-c4ccccc43)cn2C)cc1C(=O)NCCc1c[nH]c2ccccc12 | > 31.9 µM | 4.6 µM | 18.8 µM
53 °C | 6 °C | 45 °C | 0 °C | Cn1cc(NC(=O)c2cc(NC(=O)Nc3ccccc3)cn2C)cc1C(=O)NCCc1c[nH]c2ccccc12 | 16.8 µM | 14.3 µM | 19.7 µM
65 °C | 16 °C | 45 °C | 0 °C | Cn1cc(NC(=O)c2cc(NC(=O)c3cc(NC=O)cn3C)cn2C)cc1C(=O)NCCC(=N)N |  |  | 
 |  |  |  | C=CCOC(=O)Nc1cc(C(=O)Nc2cc(C(=O)NCCc3c[nH]c4ccccc34)n(C)c2)n(C)c1 | 1.7 µM | 14.3 µM | 15.4 µM
 |  |  |  | Cn1cc(NC(=O)c2cc(NC(=O)NCc3ccccc3)cn2C)cc1C(=O)NCCc1c[nH]c2ccccc12 | > 20 µg/mL | > 20 µg/mL | > 20 µg/mL
 |  |  |  | COC(=O)Nc1cc(C(=O)Nc2cc(C(=O)NCCc3ccc(O)c(O)c3)n(C)c2)n(C)c1 | > 20 µg/mL | > 20 µg/mL | > 20 µg/mL
 |  |  |  | COC(=O)Nc1cc(C(=O)Nc2cc(C(=O)NCCc3ccccc3)n(C)c2)n(C)c1 | > 20 µg/mL | > 20 µg/mL | > 20 µg/mL
 |  |  |  | COC(=O)Nc1cc(C(=O)Nc2cc(C(=O)NCCc3c[nH]c4ccccc34)n(C)c2)n(C)c1 | 17.7 µM | 21.6 µM | 24.9 µM
71 °C | 25 °C | 47 °C | 0 °C | COC(=O)Nc1cc(C(=O)Nc2cc(C(=O)OCCc3ccccc3)n(C)c2)n(C)c1 | 2.8 µM | 2 µM | 13 µM
59 °C | 11 °C | 68 °C | 21 °C | Cn1cc(NC(=O)c2cc(NC(=O)OCC(Cl)(Cl)Cl)cn2C)cc1C(=O)NCCc1c[nH]c2ccccc12 | 10 µM | 4 µM | 10.3 µM
 |  |  |  | COC(=O)Nc1coc(C(=O)Nc2coc(C(=O)NCCc3ccc(O)cc3)c2)c1 [PROXIMICIN B] | 3.6 µM | 23 µM | 12.1 µM
 |  |  |  | COC(=O)Nc1cc(C(=O)Nc2cc(C(=O)NCCCC(=O)O)n(C)c2)n(C)c1 | > 20 µg/mL | > 20 µg/mL | > 20 µg/mL
 |  |  |  | COC(=O)Nc1cc(C(=O)Nc2cc(C(=O)NCCC(C)C)n(C)c2)n(C)c1 | > 20 µg/mL | > 20 µg/mL | > 20 µg/mL
 |  |  |  | COC(=O)Nc1cc(C(=O)Nc2cc(C(=O)NCCc3cnc[nH]3)n(C)c2)n(C)c1 | > 20 µg/mL | > 20 µg/mL | > 20 µg/mL
 |  |  |  | Cn1cc(NC(=O)c2cc(NC(=O)C(C)(C)C)cn2C)cc1C(=O)NCCc1c[nH]c2ccccc12 | 23.5 µM | > 40.9 µM | 17.4 µM

Structure (SMILES) | Tm (Nucleic Acid [1]) | ΔTm (Nucleic Acid [2]) | Tm (Nucleic Acid [3]) | ΔTm (Nucleic Acid [4]) | GI50 (AGS) | GI50 (HepG2) | GI50 (MCF7)
Cn1cc(NC(=O)c2cc(NC(=O)CNC(=N)N)cn2C)cc1C(=O)NCCC(=N)N | 69 °C | 18 °C | 48 °C | 0 °C |  |  | 
